Laboratory results published in patent publication US11337950B2, “Biologically active cannabidiol analogs” (University of Mississippi, priority 2016, dated 2022).
Entries after “also recorded” stand apart in the source; their conditions may differ. Counter-ions that a name gives are not always drawn. Like-named read-outs stand apart in the source and are kept apart here.

Assays:
[1] = In vivo eye tissue levels 90 min after topical application in Tocrisolve emulsion (Examples 12-14); set-up: species or system New Zealand albino rabbits; details: for concentration at 90 min: male, New Zealand albino, 90 min post topical 50 μL Tocrisolve emulsion; for Penetration into the ocular tissues, in words (Example 14): topical Tocrisolve emulsion
Method: Conscious male New Zealand albino rabbits were used. The formulations were applied topically into the rabbits eyes (50 μL containing the equivalent of 250 μg CBD) in Tocrisolve® emulsion formulations as described in Example 11. The animals were sacrificed 90 min. after drug application and the eye tissues harvested for analysis.
The same procedure was followed as shown under Example 12. Additional CBD analogs were tested in this example. In this example the tissue levels of both free CBD and intact analog were determined.
Formulations: Fifty microlitres of 0.5% w/v CBD in Tocrisolve emulsion (Dose: 0.25 mg)
Animal model: Conscious male new Zealand albino rabbits, Duration of the study: 90 min.
Aqueous humor, Vitreous humor, Retina-Choroid and Iris-Ciliary bodies analysed for parent compound as well as CBD.
Formulations: Fifty microlitres of 0.5% w/v Tocrisolve emulsion formulations (Dose: 0.25 mg)
Animal model: Conscious male new Zealand albino rabbits, Duration of the study: 90 min

[2] = Solubility of CBD and its analogs in Tocrisolve emulsion; format: physicochemical; details: for Maximum solubility achieved in Tocrisolve: as the substance itself
Method: Formulations: 0.5% w/v CBD equivalent in Tocrisolve emulsion.
Tocrisolve composition: […] emulsion composed of a 1:4 ratio of soya oil/water that is emulsified with the block co-polymer Pluronic F68. Manufacturing process for the Tocrisolve emulsion: • Add accurately weighed amount of drug a glass vial. • Add required volume of Torcisolve blank emulsion to each vial • Vortex each vial for 5 minutes. • Sonicate each vial for 10 minutes. • Centrifuge each vial for 5 minutes at 9000 rpm at 25° C. • Collect the supernatant and analyze for CBD, CBD-Val Mono and CBD-Val-HS mono as applicable.

[3] = Bioavailability of CBD from suppository formulations containing CBD-Val-HS (Example 15); format: in vivo; details: cannulated rats, rectal suppository; PEG 1000 (7 mg) vs Wecobe W (6.125 or 4.625 mg)
Method: CBD-Val-HS was formulated in both lipophilic (Wecobe W base) and hydrophilic (PEG 1000 base) suppository formulations. The formulations were administered to cannulated rats (100 mg suppository per rat) and blood samples were collected, centrifuged and the plasma separated for LC/MS/MS analysis. The amount of CBD in the plasma samples was quantified. The amount of CBD-Val-HS in the plasma samples was not quantified.

[4] = format: physicochemical; details: for Stability under acidic (gastric juice) conditions, in words: pH 1.2, 37° C.; for Stability under physiologic / intestinal juice conditions, in words: pH 7.4, 37° C.; for Concentration of CBD / Concentration of Δ^9-THC: CBD incubated, 37° C.
Method: The stability CBD and CBD analogs (CBD-Mono-VHS and CBD-Di-VHS) was evaluated under acidic and alkaline conditions to simulate exposure to gastric and intestinal fluids. The procedure is outlined as follows: • 1. Stock solution of 5 mg/mL CBD, CBD-Mono-Val-Mono HS, CBD-Di-Val-Di HS was prepared. • 2. Simulated Gastric Fluid (pH 1.2)+1% (SDS) was prepared and kept in 37° C. water bath. • 3. Physiological buffer (pH 7.4)+1% SDS was prepared and kept in 37° C. water bath. • 4. 100 μL of CBD, CBD-Mono-Val-Mono HS or CBD-Di-Val-Di-HS stock in acetonitrile (equivalent to 500 μg) was spiked into separate vials containing 5 ml of either pH 1.2 and 7.4. • 5. At each time point, 100 μL of the solution was withdrawn. • 6. 900 μL acetonitrile was added to each sample. • 7. All samples centrifuged at 4° C. and 13,000 rpm. • 8. 100 μL of the supernatant was withdrawn; to this 100 μL of supernatant, 900 μL of acetonitrile was added and placed in LC vials for analysis. Tables 9, 10 and 11, and FIGS. 7a, 7b, 18, and 19 show the results.

[5] = test system: morphine place preference; assay: Morphine conditioned place preference, model of addiction (Example 25); details: mice
[6] = test system: cisplatin-induced tactile allodynia; assay: Cisplatin-induced tactile allodynia model, electronic von Frey (Examples 23, 24); format: in vivo, C57BL/6 mice; details: mice
[7] = rabbit eye, 90 min post topical, 250 μg CBD equivalent

C=C(C)C1CCC(C)=CC1c1c(OC(=O)[C@@H](NC(=O)CCC(=O)O)C(C)C)cc(CCCCC)cc1OC(=O)[C@@H](NC(=O)CCC(=O)O)C(C)C (stereo partly shown) [CBD-VAL-HS]
concentration at 90 min ([1]; retina-choroid, Table 4, Set 2, rabbit, dose 250 μg, read-out: Analog Concentration, Retina Choroid): 142 ± 76 ng/g

C=C(C)C1CCC(C)=CC1c1c(OC(=O)CCC(=O)O)cc(CCCCC)cc1OC(=O)CCC(=O)O (stereo not shown) [CBD-HS, CBD-Di-Hemisuccinate]
Maximum solubility achieved in Tocrisolve [2]: 1.12 % w/v
Maximum solubility achieved in Tocrisolve (In terms of CBD) [2]: (0.7) % w/v
Penetration into the ocular tissues, in words (Example 14) ([1]; rabbit eye): not adequate

C=C(C)C1CCC(C)=CC1c1c(OC(=O)[C@@H](NC(=O)CCC(=O)O)C(C)C)cc(CCCCC)cc1OC(=O)[C@@H](NC(=O)CCC(=O)O)C(C)C (stereo partly shown) [CBD-Val-HS, CBD-Di-Valinate-Di-Hemisuccinate]
Plasma levels of CBD, hydrophilic base compared with lipophilic base, in words [3]: Higher levels of CBD
Stability under acidic (gastric juice) conditions, in words [4]: stable
Stability under physiologic / intestinal juice conditions, in words [4]: stable
Penetration into the ocular tissues, in words (Example 14) ([1]; rabbit eye): not adequate

C=C(C)[C@@H]1CCC(C)=C[C@H]1c1c(O)cc(CCCCC)cc1O [CBD, Cannabidiol]
Effect on morphine place preference, in words ([5]; morphine groups, IP, CBD 2.5-20.0 mg/kg, CBD-val-HS 10.0 mg/kg): dose-dependently decreased preference scores that approached significance at 10 mg/kg CBD; also recorded: showed a tendency to block the addictive effects of morphine
Place preference or aversion of the substance itself, in words ([5]; saline groups, IP, CBD 2.5-20.0 mg/kg, CBD-val-HS 10.0 mg/kg): did not show neither place preference nor aversion
Maximum solubility achieved in Tocrisolve [2]: 1.19 % w/v
Effect on cisplatin-induced tactile allodynia (eVF paw withdrawal), in words ([6]; Example 23, 1.0 mg/kg CBD in combination with 0.1 mg/kg morphine, IP): did not further alter the anti-allodynic properties
Effect on cisplatin-induced tactile allodynia (eVF paw withdrawal), in words ([6]; Example 23, 1.0 mg/kg IP alone, 45 minutes prior to testing): modest attenuation of CIN
Effect on cisplatin-induced tactile allodynia (eVF paw withdrawal), in words ([6]; Example 23, 2.0 mg/kg CBD in combination with 0.1 mg/kg morphine, IP): attenuated tactile allodynia comparable to 2.5 mg/kg morphine
Effect on cisplatin-induced tactile allodynia (eVF paw withdrawal), in words ([6]; Example 23, 2.0 mg/kg CBD in combination with 2.5 mg/kg morphine, IP): not further enhanced
Effect on cisplatin-induced tactile allodynia (eVF paw withdrawal), in words ([6]; Example 23, 2.0 mg/kg IP alone, 45 minutes prior to testing): ineffective
Concentration of CBD ([4]; Acid (pH 1.2), Time Point 0): 656 ng/mL
Concentration of Δ^9-THC ([4]; Acid (pH 1.2), Time Point 0): 38 ng/mL
Concentration of CBD ([4]; Acid (pH 1.2), Time Point 15): 553 ng/mL
Concentration of Δ^9-THC ([4]; Acid (pH 1.2), Time Point 15): 238 ng/mL
Concentration of CBD ([4]; Acid (pH 1.2), Time Point 30): 204 ng/mL
Concentration of Δ^9-THC ([4]; Acid (pH 1.2), Time Point 30): 243 ng/mL
Concentration of CBD ([4]; Acid (pH 1.2), Time Point 60): 111 ng/mL
Concentration of Δ^9-THC ([4]; Acid (pH 1.2), Time Point 60): 496 ng/mL
Concentration of CBD ([4]; Acid (pH 1.2), Time Point 90): 91 ng/mL
Concentration of Δ^9-THC ([4]; Acid (pH 1.2), Time Point 90): 625 ng/mL
Concentration of CBD ([4]; Acid (pH 1.2), Time Point 120): 46 ng/mL
Concentration of Δ^9-THC ([4]; Acid (pH 1.2), Time Point 120): 454 ng/mL
Concentration of CBD ([4]; Base (pH 7.4), Time Point 0): 760 ng/mL
Concentration of CBD ([4]; Base (pH 7.4), Time Point 15): 943 ng/mL
Concentration of CBD ([4]; Base (pH 7.4), Time Point 30): 1015 ng/mL
Concentration of CBD ([4]; Base (pH 7.4), Time Point 60): 1119 ng/mL
Concentration of CBD ([4]; Base (pH 7.4), Time Point 90): 1081 ng/mL
Concentration of CBD ([4]; Base (pH 7.4), Time Point 120): 975 ng/mL
Conversion to Δ^9-THC under acidic conditions, in words ([4]; acidic conditions): converts to Δ^9-THC
Stability under acidic (gastric juice) conditions, in words [4]: partially converted to THC
Stability under physiologic / intestinal juice conditions, in words [4]: stable
concentration at 90 min ([1]; retina-choroid, Table 2, rabbit eye, 250 μg CBD equivalent, read-out: Concentration of CBD in Retina Choroid): 17.3 ± 6.5 ng/g
Ocular tissue levels of the applied substance, in words (Example 13) ([1]; rabbit eye, 90 min post topical, 0.25 mg CBD): no levels in the tissues at all
Ocular tissue levels, in words (Example 12) [1, 7]: very low levels in the retina choroid

C=C(C)C1CCC(C)=CC1c1c(OC(=O)[C@@H](N)C(C)C)cc(CCCCC)cc1OC(=O)[C@@H](N)C(C)C (stereo partly shown) [CBD-Val-HCl]
Maximum solubility achieved in Tocrisolve [2]: 2.04 % w/v
Maximum solubility achieved in Tocrisolve (In terms of CBD) [2]: (1.09) % w/v
concentration at 90 min ([1]; retina-choroid, Table 2, rabbit eye, 250 μg CBD equivalent, read-out: Concentration of CBD-Val in Retina Choroid): 9.1 ± 1.5 ng/g
Ocular tissue levels, in words (Example 12) [1, 7]: very low levels in the retina choroid

C=C(C)C1CCC(C)=CC1c1c(OC(=O)[C@@H](NC(=O)CCC(=O)O)C(C)C)cc(CCCCC)cc1OC(=O)[C@@H](NC(=O)CCC(=O)O)C(C)C (stereo partly shown) [CBD-Val-HS]
concentration at 90 min ([1]; aqueous humor, Table 2, rabbit eye, 250 μg CBD equivalent, read-out: Concentration of CBD-Val-HS in Aqueous Humor): 24.6 ± 16.2 ng/g
concentration at 90 min ([1]; retina-choroid, Table 2, rabbit eye, 250 μg CBD equivalent, read-out: Concentration of CBD-Val-HS in Retina Choroid): 417 ± 114 ng/g
concentration at 90 min ([1]; vitreous humor, Table 2, rabbit eye, 250 μg CBD equivalent, read-out: Concentration of CBD-Val-HS in Vitreous Humor): 612 ± 264 ng/g

CBD-Mono-Valinate [CBD-VAL-MONO]
Maximum solubility achieved in Tocrisolve [2]: 1.41 % w/v
Maximum solubility achieved in Tocrisolve (In terms of CBD) [2]: (1.07) % w/v

CN1CC[C@]23c4c5ccc(O)c4O[C@H]2[C@@H](O)C=C[C@H]3[C@H]1C5.O=S(=O)(O)O [morphine, Morphine sulfate]
Conditioned place preference scores, in words ([5]; morphine treated vs control group (vehicle+saline)): higher preference scores compared to the control group
Effect on cisplatin-induced tactile allodynia (eVF paw withdrawal), in words ([6]; Example 23, 0.1 mg/kg IP alone, 45 minutes prior to testing): did not affect eVF responses
Effect on cisplatin-induced tactile allodynia (eVF paw withdrawal), in words ([6]; Example 23, 2.5 mg/kg IP alone, 45 minutes prior to testing): fully attenuated tactile allodynia
Effect on cisplatin-induced tactile allodynia (eVF paw withdrawal), in words ([6]; Example 24, 0.1 mg/kg IP alone): did not affect eVF responses
Effect on cisplatin-induced tactile allodynia (eVF paw withdrawal), in words ([6]; Example 24, 2.5 mg/kg IP alone): fully attenuated tactile allodynia

C=C(C)C1CCC(C)=CC1c1c(OC(=O)[C@@H](N)C(C)C)cc(CCCCC)cc1OC(=O)[C@@H](N)C(C)C (stereo partly shown) [CBD-di-Val, CBD-Di-Valinate]
Penetration into the ocular tissues, in words (Example 14) ([1]; rabbit eye): not adequate
